This note sets out measurements from patent US11179346B2, “Rupatadine-containing patch” (TEIKOKU SEIYAKU CO., LTD., priority 2017, dated 2021).

SMILES strings stand for the structures.

Data set [1] in a line: Degree of solubility of rupatadine free base in each plaster ingredient (HPLC method). It counts as physicochemical. The source says:
Test Example 1: Investigation of Degree of Solubility of Rupatadine Free Base in Each Ingredient
The degree of solubility of a rupatadine free base (sometimes also referred to as “rupatadine base”) as an active ingredient in each plaster ingredient was investigated.
Levulinic acid as a solubilizer, oleyl oleate and isopropyl myristate (IPM) as a softener, and lauromacrogol (BL-4,2: polyoxyethylene lauryl ether) as a surfactant were selected. The degree of solubility of the rupatadine base in each ingredient was investigated.
To 5 mL of each of levulinic acid, oleyl oleate, isopropyl myristate (IPM), and lauromacrogol (BL-4,2), an excessive amount of the rupatadine base was added and stirred. The mixture was filtered through a 0.45-μm membrane filter, to remove an undissolved substance. To 200 μL of the filtrate, methanol was added using a measuring flask to adjust the volume to a desired volume. The mixture was measured by HPLC.
A rupatadine concentration was measured by an external calibration curve method, and the degree of solubility was calculated by specific gravity conversion.

The nature of data set [2]: Degree of solubility of rupatadine base in acrylic adhesive (gravimetric method, presence or absence of crystal). It counts as physicochemical. Particulars: in acrylic adhesive (OH group), 100 μm plaster, crystal observed by microscope. As for the experimental part: For comparison, the degree of solubility of the rupatadine base in an acrylic adhesive as an adhesive base was also investigated.
The degree of solubility of the rupatadine base in the acrylic adhesive was tested by a gravimetric method.
To 1 g (solid content) of the acrylic adhesive, the rupatadine base was added, and the mixture was stirred and degassed by ultrasonic wave.
The adhesive solution was applied so as to have a thickness of 100 μm, and dried. A plaster was observed by a microscope (manufactured by KEYENCE CORPORATION).
The degree of solubility was determined by the presence or absence of crystal.

Turning to `Cc1cncc(CN2CCC(=C3c4ccc(Cl)cc4CCc4cccnc43)CC2)c1` [rupatadine base, 8-chloro-11-[1-[(5-methyl-3-pyridinyl)methyl]-piperidin-4-ylidene]-6,11-dihydro-5H-benzo[5,6]cyclohepta[1,2-b]pyridine], the “Solubility (w/w %)” value in data set [1] (in isopropyl myristate (softener)) was 2 w/w %; in data set [1] (in lauromacrogol (BL-4,2) (surfactant)), 4 w/w %; in data set [1] (in levulinic acid (solubilizer)) it was 29 w/w %; in data set [1] (in oleyl oleate (softener)) it was 2 w/w %; in data set [2], ≤15 to 16< w/w %.
